Values of other authors as cited in patent US7288270B1, “Therapeutic composition for the prevention and treatment of mucositis and mucosal disorders” (priority 2002, dated 2007).

Tests used:
[1] = test system: mucositis; settings: human, in vivo
[2] = test system: Gram negative bacteria that tend to colonize the oral cavity; settings: patients undergoing radiation therapy
[3] = test system: eczema; settings: ointment, topical
[4] = test system: Herpes virus; settings: in test tubes
[5] = test system: mucositis; settings: subsequent randomized and controlled studies
[6] = test system: Staphylococcus aureus; settings: in the solvent dimethyl sulfoxide; one range given for three species
[7] = test system: Pseudomonas aeruginosa; settings: in the solvent dimethyl sulfoxide; one range given for three species
[8] = test system: Enterococcus faecalis; settings: in the solvent dimethyl sulfoxide; one range given for three species
[9] = test system: HSV-1; settings: dose-dependent, reversible manner
[10] = test system: dermatophytes (Trichophyton mentagrophytes, Trichophyton tonsurans, Trichophyton rubrum, Epidermophyton floccosum, Microsporum gypseum)
[11] = test system: HSV-2; settings: dose-dependent, reversible manner

Q: Which results are given for `[H]/N=C(\N/C(=N/[H])NCCCCCCNC(=N)NC(=N)Nc1ccc(Cl)cc1)Nc1ccc(Cl)cc1` [chlorhexidine, Chlorhexidine]?
A: incidence of mucositis [1]: higher incidence of mucositis; effectiveness against Gram negative bacteria of the oral cavity [2]: relatively ineffective

Q: With `CC1(C)[C@@H](O)CC[C@]2(C)[C@H]3C(=O)C=C4[C@@H]5C[C@@](C)(C(=O)O)CC[C@]5(C)CC[C@@]4(C)[C@]3(C)CC[C@@H]12` [glycyrrhetinic acid] as the molecule, how does the “improvement of eczema compared with hydrocortisone” value [3] read?
A: as effective as hydrocortisone

Q: For `CC1(C)[C@@H](O[C@H]2O[C@H](C(=O)O)[C@@H](O)[C@H](O)[C@H]2O[C@@H]2O[C@H](C(=O)O)[C@@H](O)[C@H](O)[C@H]2O)CC[C@]2(C)[C@H]3C(=O)C=C4[C@@H]5C[C@@](C)(C(=O)O)CC[C@]5(C)CC[C@@]4(C)[C@]3(C)CC[C@@H]12` [glycyrrhizic acid], which “inhibition of herpes virus” value [4] is on record?
A: inhibited

Q: Which benefit in mucositis [5] does the source give for `CC(=O)CCCCn1c(=O)c2c(ncn2C)n(C)c1=O` [pentoxifylline] here?
A: failed to demonstrate any benefit

Q: Which “concentration at which growth was inhibited” value [6] does the source give for `Oc1ccc(/C=C/c2cc(O)cc(O)c2)cc1` [resveratrol, 3,5,4′-trihdyroxystilbene] here?
A: 171 to 342 µg/mL

Q: What about the “concentration at which growth was inhibited” value [7] of the same molecule?
A: 171 to 342 µg/mL

Q: What about the “concentration at which growth was inhibited” value [8] of the same molecule?
A: 171 to 342 µg/mL

Q: And the “inhibition of HSV-1 replication” value [9]?
A: inhibit

Q: What about the “concentration at which growth of dermatophytes was inhibited” value [10] of the same molecule?
A: 25 to 50 µg/mL

Q: What about the “inhibition of HSV-2 replication” value [11] of the same molecule?
A: inhibit
